In brackets after ≈: the same amount, converted by molar mass. Read-outs that look alike come from different tables or passages of the source. Peptide text beside a SMILES is read from it. * marks the point of attachment. Acm = CC(=O)NC*
Legend:
Format in all cases: cell-based
[1] = system: Escherichia coli ATCC 25922
How it was run: (§1)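 MIC values came from a standard microdilution method using mid-log bacteria at 2×10^6 CFU/ml in 1% Bacto Peptone water. HPLC confirmed actual peptide concentrations in solution, given possible adherence of the cationic peptides to plastic.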

[2] = system: Staphylococcus aureus ATCC 25923
How it was run: as §1

human red blood cells = assay: Hemolytic assay; conditions: red cells of human
Experimental: The hemolytic activities of the peptides were determined using fresh human red blood cells. 8 ml blood was taken from a healthy person. 4 ml blood was transferred to a polycarbonate tube containing heparin to a final concentration of 10 U/ml, and the remaining 4 ml blood was transferred to a glass tube containing EDTA with final concentration of 15% EDTA. The erythrocytes were isolated from heparin-treated blood by centrifugation in 1500 rpm for 10 min and washed three times with phosphate-buffered saline (PBS) to remove plasma and buffy coat. The cell pellet was resuspended in PBS to make the final volume of 4 ml. The peptide was diluted to a concentration of 2 mg/ml and 0.1 mg/ml. The peptide was further diluted to the concentrations as stated in Table 15. For each tube PBS was added first, then RBCs and peptide solutions. The hematocrit in the blood treated with EDTA was determined after 30 min with Sysmex K-1000, and the resuspended RBCs were diluted into 10% hematocrit. RBCs in PBS (1%) with and without peptides (Table 15) were incubated in a shaker at […] for 1 hour and then centrifuged at 4000 rpm for 5 min. The supernatant were carefully transferred to new polycarbonate tubes and the absorbance of the supernatant was measured at 540 nm. Baseline hemolysis was hemoglobin released in the presence of PBS, and 100% hemolysis was hemoglobin released in the presence of 0.1% Triton X-100.

| Structure (SMILES) | MIC E. coli ([1]; ATCC 25922) [µg/mL] | MIC S. aureus ([2]; ATCC 25923) [µg/mL] | % Hemolysis 10 μg/ml (human red blood cells) [%] | % Hemolysis 100 μg/ml (human red blood cells) [%] | MIC E. coli ATCC 25922 ([1]; ATCC 25922) [µg/mL] | MIC E. coli ATCC 25922 ([1]; Table 1, value in brackets) [µM] | MIC E. coli ([1]; Table 12) [µg/mL] | MIC S. aureus ATCC 25923 ([2]; ATCC 25923) [µg/mL] | MIC S. aureus ATCC 25923 ([2]; Table 1, value in brackets) [µM] | MIC S. aureus ([2]; Table 12) [µg/mL] | MIC E. coli ([1]; Table 6) [µg/mL] | MIC S. aureus ([2]; Table 6, unit assumed) [µg/mL] |
| --- | --- | --- | --- | --- | --- | --- | --- | --- | --- | --- | --- | --- |
| CSCC[C@H](NC(=O)[C@H](CCCNC(=N)N)NC(=O)[C@H](Cc1c[nH]c2ccccc12)NC(=O)[C@H](CCC(N)=O)NC(=O)[C@H](C)NC(=O)[C@H](CCCNC(=N)N)NC(=O)[C@H](CCCNC(=N)N)NC(=O)[C@H](CSCNC(C)=O)NC(=O)[C@H](CCCCN)NC(=O)[C@@H](N)Cc1ccccc1)C(=O)N[C@@H](CCCCN)C(=O)N[C@@H](CCCCN)C(=O)N[C@@H](CC(C)C)C(=O)NCC(=O)N[C@@H](C)C(=O)O [LFB A6] (H-FKC(Acm)RRAQWRMKKLGA-OH; N-terminus assumed) | >200 | >200 | 2.78 | 3.27 |  |  |  |  |  |  |  |  |
| CSCC[C@H](NC(=O)[C@H](CCCNC(=N)N)NC(=O)[C@H](Cc1c[nH]c2ccccc12)NC(=O)[C@H](CCC(N)=O)NC(=O)[C@H](Cc1c[nH]c2ccccc12)NC(=O)[C@H](CCCNC(=N)N)NC(=O)[C@H](Cc1ccccc1)NC(=O)[C@H](CSCNC(C)=O)NC(=O)[C@H](CCCCN)NC(=O)[C@@H](N)Cc1ccccc1)C(=O)N[C@@H](CCCCN)C(=O)N[C@@H](CCCCN)C(=O)N[C@@H](CC(C)C)C(=O)NCC(=O)N[C@@H](C)C(=O)O [LFB F4] (H-FKC(Acm)FRWQWRMKKLGA-OH; N-terminus and C-terminus assumed) |  |  | 2.4 | 3.2 | 20 | 10 | 20 (≈ 9.73 µM) | 200 | 100 | 200 (≈ 97.3 µM) |  |  |
| CSCC[C@H](NC(=O)[C@H](CCCNC(=N)N)NC(=O)[C@H](Cc1c(S(=O)(=O)c2c(C)c(C)c3c(c2C)CCC(C)(C)O3)[nH]c2ccccc12)NC(=O)[C@H](CCC(N)=O)NC(=O)[C@H](Cc1ccc2ccccc2c1)NC(=O)[C@H](CCCNC(=N)N)NC(=O)[C@H](CCCNC(=N)N)NC(=O)[C@H](CSCNC(C)=O)NC(=O)[C@H](CCCCN)NC(=O)[C@@H](N)Cc1ccccc1)C(=O)N[C@@H](CCCCN)C(=O)N[C@@H](CCCCN)C(=O)N[C@@H](CC(C)C)C(=O)NCC(=O)N[C@@H](C)C(=O)O [LFB Nal6 PMC] | 25 (≈ 10.7 µM) | 20 (≈ 8.54 µM) | 2.8 | 17.8 |  |  |  |  |  |  |  |  |
| CSCC[C@H](NC(=O)[C@H](CCCNC(=N)N)NC(=O)[C@H](Cc1c[nH]c2ccccc12)NC(=O)[C@H](CCC(N)=O)NC(=O)[C@H](Cc1ccc2ccccc2c1)NC(=O)[C@H](CCCNC(=N)N)NC(=O)[C@H](CCCNC(=N)N)NC(=O)[C@H](CSCNC(C)=O)NC(=O)[C@H](CCCCN)NC(=O)[C@@H](N)Cc1ccccc1)C(=O)N[C@@H](CCCCN)C(=O)N[C@@H](CCCCN)C(=O)N[C@@H](CC(C)C)C(=O)NCC(=O)N[C@@H](C)C(=O)O [LFB Nal6] | 20 (≈ 9.63 µM) | 75 (≈ 36.1 µM) | 2.2 | 4.4 |  |  |  |  |  |  |  |  |
| CSCC[C@H](NC(=O)[C@H](CCCNC(=N)N)NC(=O)[C@H](Cc1ccc2ccccc2c1)NC(=O)[C@H](CCC(N)=O)NC(=O)[C@H](Cc1c(S(=O)(=O)c2c(C)c(C)c3c(c2C)CCC(C)(C)O3)[nH]c2ccccc12)NC(=O)[C@H](CCCNC(=N)N)NC(=O)[C@H](CCCNC(=N)N)NC(=O)[C@H](CSCNC(C)=O)NC(=O)[C@H](CCCCN)NC(=O)[C@@H](N)Cc1ccccc1)C(=O)N[C@@H](CCCCN)C(=O)N[C@@H](CCCCN)C(=O)N[C@@H](CC(C)C)C(=O)NCC(=O)N[C@@H](C)C(=O)O [LFB Nal8 PMC] | 20 (≈ 8.54 µM) | 10 (≈ 4.27 µM) | 6.96 | 18.86 |  |  |  |  |  |  |  |  |
| CSCC[C@H](NC(=O)[C@H](CCCNC(=N)N)NC(=O)[C@H](Cc1ccc2ccccc2c1)NC(=O)[C@H](CCC(N)=O)NC(=O)[C@H](Cc1c[nH]c2ccccc12)NC(=O)[C@H](CCCNC(=N)N)NC(=O)[C@H](CCCNC(=N)N)NC(=O)[C@H](CSCNC(C)=O)NC(=O)[C@H](CCCCN)NC(=O)[C@@H](N)Cc1ccccc1)C(=O)N[C@@H](CCCCN)C(=O)N[C@@H](CCCCN)C(=O)N[C@@H](CC(C)C)C(=O)NCC(=O)N[C@@H](C)C(=O)O [LFB Nal8] | 10 (≈ 4.82 µM) | 50 (≈ 24.1 µM) | 3 | 4.7 |  |  |  |  |  |  |  |  |
| CSCC[C@H](NC(=O)[C@H](CCCNC(=N)N)NC(=O)[C@H](Cc1c[nH]c2ccccc12)NC(=O)[C@H](CCC(N)=O)NC(=O)[C@H](Cc1c[nH]c2ccccc12)NC(=O)[C@H](CCCNC(=N)N)NC(=O)[C@H](CCCNC(=N)N)NC(=O)[C@H](Cc1c[nH]c2ccccc12)NC(=O)[C@H](CCCCN)NC(=O)[C@@H](N)Cc1ccccc1)C(=O)N[C@@H](CCCCN)C(=O)N[C@@H](CCCCN)C(=O)N[C@@H](CC(C)C)C(=O)NCC(=O)N[C@@H](C)C(=O)O [LFB W3, H2N-Phe-Lys-Trp-Arg-Arg-Trp-Gln-Trp-Arg-Met-Lys-Lys-Leu-Gly-Ala-COOH] | 20 (≈ 9.63 µM) | 20 (≈ 9.63 µM) | 2.3 | 3.8 |  |  |  |  |  |  | 20 (≈ 9.63 µM) | 20 (≈ 9.63 µM) |
| CSCC[C@H](NC(=O)[C@H](CCCNC(=N)N)NC(=O)[C@H](Cc1c[nH]c2ccccc12)NC(=O)[C@H](CCC(N)=O)NC(=O)[C@H](Cc1c[nH]c2ccccc12)NC(=O)[C@H](CCCNC(=N)N)NC(=O)[C@H](CCCNC(=N)N)NC(=O)[C@H](CSCNC(C)=O)NC(=O)[C@H](CCCCN)NC(=O)[C@@H](N)Cc1ccccc1)C(=O)N[C@@H](CCCCN)C(=O)N[C@@H](CCCCN)C(=O)N[C@@H](CC(C)C)C(=O)N[C@@H](Cc1c[nH]c2ccccc12)C(=O)N[C@@H](C)C(=O)O [LFB W14, H2N-Phe-Lys-Cys-Arg-Arg-Trp-Gln-Trp-Arg-Met-Lys-Lys-Leu-Trp-Ala-COOH] (H-FKC(Acm)RRWQWRMKKLWA-OH) | 20 (≈ 9.11 µM) | 25 (≈ 11.4 µM) | 3 | 4.1 |  |  |  |  |  |  | 20 (≈ 9.11 µM) | 25 (≈ 11.4 µM) |
| CSCC[C@H](NC(=O)[C@H](CCC(=O)O)NC(=O)[C@H](Cc1c[nH]c2ccccc12)NC(=O)[C@H](CCC(N)=O)NC(=O)[C@H](Cc1c[nH]c2ccccc12)NC(=O)[C@H](CCCNC(=N)N)NC(=O)[C@H](CC(C)C)NC(=O)[C@H](CSCNC(C)=O)NC(=O)[C@H](CCCCN)NC(=O)[C@H](C)N)C(=O)N[C@@H](CCCNC(=N)N)C(=O)N[C@@H](CCCCN)C(=O)N[C@H](C(=O)NCC(=O)NCC(=O)O)C(C)C [LFM A1 W8] (H-AKC(Acm)LRWQWEMRKVGG-OH; N-terminus assumed) | 750 (≈ 391 µM) | >1000 | 2.4 | 3 |  |  |  |  |  |  |  |  |
| CSCC[C@H](NC(=O)[C@H](C)NC(=O)[C@H](Cc1c[nH]c2ccccc12)NC(=O)[C@H](CCC(N)=O)NC(=O)[C@H](Cc1c[nH]c2ccccc12)NC(=O)[C@H](CCCNC(=N)N)NC(=O)[C@H](CC(C)C)NC(=O)[C@H](CSCNC(C)=O)NC(=O)[C@H](CCCCN)NC(=O)[C@H](C)N)C(=O)N[C@@H](CCCNC(=N)N)C(=O)N[C@@H](CCCCN)C(=O)N[C@H](C(=O)NCC(=O)NCC(=O)O)C(C)C [LFM A1, 9 W8] (H-AKC(Acm)LRWQWAMRKVGG-OH; N-terminus assumed) | 200 (≈ 107 µM) | >1000 | 2.8 | 3.7 |  |  |  |  |  |  |  |  |
| CSCC[C@H](NC(=O)[C@H](C)NC(=O)[C@H](Cc1c[nH]c2ccccc12)NC(=O)[C@H](CCC(N)=O)NC(=O)[C@H](Cc1c[nH]c2ccccc12)NC(=O)[C@H](CCCNC(=N)N)NC(=O)[C@H](CC(C)C)NC(=O)[C@H](CSCNC(C)=O)NC(=O)[C@H](CCCCN)NC(=O)[C@@H](N)CCC(=O)O)C(=O)N[C@@H](CCCNC(=N)N)C(=O)N[C@@H](CCCCN)C(=O)N[C@H](C(=O)NCC(=O)NCC(=O)O)C(C)C [LFM A9 W8] (H-EKC(Acm)LRWQWAMRKVGG-OH; N-terminus assumed) | >1000 | >1000 | 2.5 | 3.5 |  |  |  |  |  |  |  |  |

— US20030022821A1, “Bioactive peptides” (priority 1998, published 2003)
